These results are taken from article PMC9322082, “Improvement in Solubility–Permeability Interplay of Psoralens from Brosimum gaudichaudii Plant Extract upon Complexation with Hydroxypropyl-β-cyclodextrin” (Molecules, 2022).

Values after ≈ are worked out from the molar mass of the structure shown. Values joined by “and” are separate entries in the source; they are usually repeats but may differ in a detail not shown here. Identical values can stand only once. Like-named read-outs stand apart in the source and are kept apart here.

Series [1] is described as follows: Ex vivo rat jejunal permeability (MTS-Snapwell system, A–B). The conditions noted are these: female, Wistar, rat. It counts as in vitro ADME. As to the method: (§1) Study protocol for female Wistar rats (12–14 weeks old) was approved by the Ethics Committee on Animal Use (#066/15) at the Federal University of Goiás, Goiás, Brazil. One week before starting the experiment, all animals were acclimatized at controlled conditions with regulated access to a standard food (22 ± 2 °C, 12-h light/dark cycle). After this, they fasted for 12 h with free access to water. All animals (body weight = 215 ± 12 g) were then anesthetized using a mixture of ketamine/xylazine (90.0/7.5 mg/kg). Rat jejunum was removed and immediately placed into an ice-cold KRB solution. The jejunum (20 mm) seromuscular layer was carefully stripped off from the membrane and mounted in the MTS-Snapwell system. Next, unidirectional drug transport was measured from the apical to basolateral side (A–B).
(§2) Sample aliquots (400 µL) were placed in the donor compartment (apical side).
(§3) Drug transport was measured by collecting samples (500 µL) from the receiver chamber (basolateral side) at 0, 20, 30, 40, 60, 90, and 120 min. Receiver samples were replaced with equal volume of fresh KRB solution (37 °C). The system was maintained on a plate shaker (60 rpm) inside a humidified incubator (37 ± 0.5 °C) in a controlled atmosphere (95% O2, and 5% CO2), before and during the transport experiment. Samples were analyzed by the HPLC-DAD validated method.
(§4) The change in donor and receiver concentrations was taken into consideration when the apparent permeability coefficient (Papp) was calculated using to the following equation:Papp = dQ/dt(1/CD A)(3) where dQ/dt is the appearance rate of the drug in the receiver compartment, CD is the concentration of the drug in the donor chamber at each sample interval, and A is the surface area (0.1 cm^2) of the tissue segment. The initial concentration of the drug in the donor compartment was determined experimentally, and donor concentrations at each time point were obtained by the calculation of the mass balance.
(§5) Integrity of intestinal tissue segments mounted in the MTS-Snapwell system was assessed by measuring the transepithelial electrical resistance (TEER) using the KRB solution at 37 °C as the conducting medium. Viable intestinal segments (>30 Ω·cm^2) were mounted on the permeation apparatus and subjected to a preincubation period (30 min) under a controlled atmosphere (95% O2 and 5% CO2) before starting the experiments.

For series [2], the system named is rat jejunum. Described as above. Type of series: in vitro ADME. The method, then:
as §1, §2, §3, §4, §5

Test in series [3]: as above
It counts as in vitro ADME. The conditions noted are these: female, Wistar, pH 7.4, pure compound, KRB, without stirring (0 rpm).

Series [4] deals with rat jejunum. Also noted: method as in PMID 32942105. The conditions noted are these: 0.58 mM; BCS low/high permeability class boundary marker; n = 41; cited from earlier work.
Series [5] in a line: Phase solubility studies with HP-β-CD in KRB buffer. It counts as physicochemical. The conditions noted are these: for solubility at 7 d: KRB buffer, 37 °C, thermodynamic from solid. As to the method: Phase solubility studies were performed in KRB buffer solutions (pH 7.4), as described by Higuchi and Connors. […] Samples were centrifuged (4000 rpm, 5 min) and filtered (Nylon filter; 0.45 µm) prior to the psoralens content analysis by the HPLC-DAD validated method.
The complexation efficiency (CE) was determined by using the slope of the linear phase solubility diagram as follows:CE = slope/(1 − slope)(2)

Series [6] in a line: Preliminary in vivo studies in rats (plasma AUC). The conditions noted are these: rat, n = 3.
In the next series the test system is jejunal tissue. Briefly: Viability of intestinal tissue segments by TEER. Type of series: in vitro ADME, rat. As to the method: The effects of HP-β-CD on the viability of intestinal tissue segments mounted in the MTS-Snapwell system was evaluated during incubation time (120 min) at 37 °C. For this purpose, TEER values in the presence and absence of 20% (w/w) HP-β-CD were compared.
as §5

Setting [7] is: pH 7.4, marker in EBGT plant extract, HP-β-CD 70 mM.
[8] abbreviates: pH 7.4, marker in EBGT plant extract, KRB solution without HP-β-CD.
Setting [9] is: pH 7.4, pure compound, HP-β-CD 70 mM.
Where [10] appears, read: pH 7.4, pure compound, KRB solution without HP-β-CD, stirring 60 rpm, 120 min.

For orientation: Papp means the rate of passage across a membrane or cell layer, normalised by area and donor concentration. `O=c1ccc2cc3ccoc3cc2o1` [PSO, Psoralen]: the Papp at 120 min is 3.86 ± 1.81 ×10⁻⁶ cm/s in series [1] (setting [7]); 17.6 ± 1.35 ×10⁻⁶ cm/s in series [1] (setting [8]); 3.82 ± 0.62 ×10⁻⁶ cm/s in series [1] (setting [9]); 21.4 ± 3.81 ×10⁻⁶ cm/s in series [1] (setting [10]); 20.5 ± 2.82 ×10⁻⁶ cm/s in series [3]. Moreover, the “permeability rate decrease after adding HP-β-CD” value was determined as 4 fold in the series on rat jejunum [2] (EBGT markers) and 6 fold with rat jejunum [2] (pure standards).
Consider `COCCc1ccc(OCC(O)CNC(C)C)cc1` (centres unmarked) [metoprolol], for which the apparent permeability coefficient (Papp) in the series with rat jejunum [4] is recorded as 6.21 ± 2.63 × 10^−6 cm/s.
What is called solubility is the dissolved amount per volume that the medium holds. A word on the AUC: it is concentration integrated over time. Higher therefore signals high exposure. Regarding `COc1c2ccoc2cc2oc(=O)ccc12` [5-MOP, 5-methoxypsoralen], in series [5] (EBGT marker vs pure compound), the “Kc fold lower in EBGT compared to pure compound” value is about 1.8 fold. The solubility at 7 d in series [5] (pH 7.4, aqueous buffer, marker in EBGT plant extract (9.0 mg/mL), KRB pH 7.4, 37 °C, absence of HP-β-CD, read-out: intrinsic solubility (S0) in EBGT) came to 38 ± 2 µM (≈ 8.22 µg/mL); in series [5] (pH 7.4, aqueous buffer, pure compound, KRB buffer pH 7.4, 37 °C, absence of HP-β-CD, read-out: intrinsic solubility (S0)), 32 ± 1 µM (≈ 6.92 µg/mL); in series [5] (pH 7.4, aqueous with cosolvent or surfactant or cyclodextrin, aqueous solubility with 70 mM HP-β-CD in plant extract, marker in EBGT, 70 mM HP-β-CD, KRB pH 7.4, 37 °C) it was 720 ± 40 µM (≈ 156 µg/mL); in series [5] (pH 7.4, aqueous with cosolvent or surfactant or cyclodextrin, aqueous solubility with 70 mM HP-β-CD, pure compound, 70 mM HP-β-CD, KRB pH 7.4, 37 °C) it was 930 ± 7 µM (≈ 201 µg/mL). The “complexation efficiency (CE) with HP-β-CD in EBGT” value in series [5] (marker in EBGT plant extract) was 0.010 ± 0.001. In addition, in series [5] (marker in EBGT plant extract (9.0 mg/mL), KRB pH 7.4, 37 °C, absence of HP-β-CD), the “intrinsic solubility (S0) in EBGT” value came out at 40 ± 2 µM. Also, the “Kc (stability constant) with HP-β-CD in EBGT” value in series [5] (marker in EBGT plant extract, KRB pH 7.4, 37 °C) was 251.2 ± 1.4 M⁻¹. The molecule further registered a solubility increase in series [5] (marker in EBGT, 70 mM HP-β-CD vs no HP-β-CD) of 18 fold. Besides, in series [5] (pure compound), the “complexation efficiency (CE) with HP-β-CD” value was 0.014 ± 0.001. The “phase solubility diagram profile (Higuchi-Connors)” value in series [5] (pure compound with HP-β-CD, indicates 1:1 complex) is reported as “AL type”. Also, the “intrinsic solubility (S0)” value in series [5] (pure compound, KRB buffer pH 7.4, 37 °C, absence of HP-β-CD) stood at 30 ± 1 µM. Moreover, the “Kc (stability constant) of HP-β-CD inclusion complex” value in series [5] (pure compound, KRB pH 7.4, 37 °C, 1:1 complex) is 449.9 ± 16.6 M⁻¹ and < 500 M⁻¹. In addition, the Papp at 120 min in series [1] (setting [7]) stood at 3.04 ± 1.19 ×10⁻⁶ cm/s; in series [1] (setting [8]), 10.7 ± 1.73 ×10⁻⁶ cm/s; in series [1] (setting [9]), 2.05 ± 0.81 ×10⁻⁶ cm/s; in series [1] (setting [10]), 11.2 ± 3.28 ×10⁻⁶ cm/s; in series [3], 7.8 ± 1.91 ×10⁻⁶ cm/s. The “permeability rate decrease after adding HP-β-CD” value with rat jejunum [2] (EBGT markers) is listed as 4 fold; in the series on rat jejunum [2] (pure standards), 6 fold. Moreover, the AUC in series [6] (EBGT in HP-β-CD 70 mM solution, dose 0.12 mg/kg) was 377 ng·h/mL; in series [6] (EBGT uncomplexed, dose 1.5 g/kg) it was 516 ng·h/mL.
On to `CC(O)COC[C@H]1O[C@@H]2O[C@H]3[C@H](O)[C@@H](O)[C@@H](O[C@H]4[C@H](O)[C@@H](O)[C@@H](O[C@H]5[C@H](O)[C@@H](O)[C@@H](O[C@H]6[C@H](O)[C@@H](O)[C@@H](O[C@H]7[C@H](O)[C@@H](O)[C@@H](O[C@H]8[C@H](O)[C@@H](O)[C@@H](O[C@H]1[C@H](O)[C@H]2O)O[C@@H]8COCC(C)O)O[C@@H]7COCC(C)O)O[C@@H]6COCC(C)O)O[C@@H]5COCC(C)O)O[C@@H]4COCC(C)O)O[C@@H]3COCC(C)O` (stereo partly drawn) [HP-β-CD, 2-hydroxypropyl-β-cyclodextrin], for which the TEER after incubation in the series on jejunal tissue (20% (w/w) HP-β-CD, 120 min, 37 °C, n = 16, control KRB 32 ± 9, p = 0.99) is listed as 29 ± 7 Ω·cm^2. Further, the “effect on viability of jejunal tissue” value in the series on jejunal tissue (HP-β-CD at high concentration (20% w/w)) was “does not affect the viability of jejunal tissue”.
